Values quoted from earlier work in patent US20200221696A1, “ACTIVE […] FORMULATION FOR I[…] AND OBTAINED PAINT” (priority 2018, published 2020).
“Also recorded” adds a separate entry of the source. Where two headings read alike, the source gives them in different places.

Details: aqueous medium; for Decomposition time (Mean life): stability in words: pH

SMILES: CCOP(=S)(OCC)Oc1nc(Cl)c(Cl)cc1Cl [Chlorpyrifos]
- Decomposition time (Mean life): stability in words: Stable in neutral and slightly acid
- Decomposition time (Mean life) (pH 10): 7 days

SMILES: CC1(C)C(C=C(Cl)Cl)C1C(=O)OC(C#N)c1cccc(Oc2ccccc2)c1 (centres unmarked) [Cypermethrin]
- Decomposition time (Mean life) (pH 9): 7 days

SMILES: C=CCC1=C(C)C(OC(=O)C2C(C=C(C)C)C2(C)C)CC1=O [D-allethrin]
- Decomposition time (Mean life): stability in words: Stable at pH 5 after 31 days
- Decomposition time (Mean life) (pH 7): 500 days
- Decomposition time (Mean life) (pH 9): (4.3 days)

SMILES: CC1(C)[C@H](C(=O)O[C@H](C#N)c2cccc(Oc3ccccc3)c2)[C@@H]1C=C(Br)Br [Deltamethrin]
- Decomposition time (Mean life): stability in words: more stable in medium acid solutions
- Decomposition time (Mean life) (pH 7): 0.33 days

SMILES: CCOP(=S)(OCC)Oc1cc(C)nc(C(C)C)n1 [Diazinon]
- Decomposition time (Mean life) (pH 5): 31 days
- Decomposition time (Mean life) (pH 7.5): 185 days
- Decomposition time (Mean life) (pH 9): 136 days

SMILES: O=C(NC(=O)c1c(F)cccc1F)Nc1ccc(Cl)cc1 [Diflubenzuron]
- Decomposition time (Mean life): stability in words: Stable in a pH range from 5 to 7; also recorded: Hydrolyzed at pH 9

SMILES: CCOC(=O)CC(SP(=S)(OC)OC)C(=O)OCC (centres unmarked) [Malathion]
- Decomposition time (Mean life): stability in words: Quickly hydrolyzed at pH over 7. The optimal pH

SMILES: CC1(C)C(C=C(Cl)Cl)C1C(=O)OCc1cccc(Oc2ccccc2)c1 (centres unmarked) [Permethrin]
- Decomposition time (Mean life): stability in words: Stable at pH between 5 and 6.

SMILES: CCN(CC)c1nc(C)cc(OP(=S)(OC)OC)n1 [Pirimiphos-methyl]
- Decomposition time (Mean life) (pH 5): 7 days
- Decomposition time (Mean life) (pH 8): 5 days

SMILES: CC(COc1ccc(Oc2ccccc2)cc1)Oc1ccccn1 (centres unmarked) [Pyriproxifen]
- Decomposition time (Mean life): stability in words: Stable in pH between 4 and 9.
